Tests used:
[1] = Time-dependent solubility of slurries (HPLC) in aqueous hydrochloric acid (0.1 N) and phosphate buffer (pH 7.5) at 37° C.; type: physicochemical; details: phosphate buffer (pH 7.5)
[2] = Gravimetric moisture sorption (GMS); type: physicochemical; details: for phase change during the GMS experiments: 0% to approximately 90% r.h.; for water uptake from 0% to 90% RH: 25±0.1° C.
Experimental: Moisture sorption isotherms were recorded with an SPSx-1p moisture sorption analyzer (ProUmid, Ulm. The measurement cycle was started at a relative humidity (r.h.) of 25%. Relative humidity was then decreased to 5% r.h. in 5% steps, followed by a further decrease to 3% r.h. and to 0% r.h. Afterwards r.h. was increased from 0% to approximately 90% r.h. in a sorption cycle and decreased to 0% in a desorption cycle in 5% steps. Finally r.h. was increased to 25% r.h. in 5% steps.
The time per step was set to a minimum of 2 hours and a maximum of 6 hours. If an equilibrium condition with a constant mass of 0.01% within 1 hour was reached before the maximum time for all examined samples the sequential humidity step was applied before the maximum time of 6 hours. If no equilibrium was achieved the consecutive humidity step was applied after the maximum time of 6 hours. The temperature was 25±0.1° C.

[3] = Time-dependent solubility of slurries (HPLC) in aqueous hydrochloric acid (0.1 N) and phosphate buffer (pH 7.5) at 37° C.; type: physicochemical
Experimental: a) Solubility in Aqueous Hydrochloric Acid (0.1 N)
102.39 mg of darolutamide form I were slurried in 20 mL aqueous hydrochloric acid (0.1 N) at 37° C.
99.41 mg of darolutamide form II were slurried in 20 mL aqueous hydrochloric acid (0.1 N) at 37° C.
b) Solubility in Phosphate Buffer (pH 7.5)
105.02 mg of darolutamide form I were slurried in 20 mL […] at 37° C.
103.41 mg of darolutamide form II were slurried in 20 mL […] at 37° C.
Samples were taken after 5 min, 15 min and 60 min. The suspensions were filtered and subjected undiluted to HPLC. The absolute solubility was calculated by creating a linear calibration curve (see below). Results are reported in Table 4 and in FIGS. 10 and 11.
Solutions of different concentrations (Table 5) of darolutamide were prepared in acetonitrile/water (75% v/v) at 37° C. and subjected to HPLC measurement. The resulting areas were illustrated as a function of the concentrations and a linear dependency could be observed (FIG. 12).

[4] = Food effect / blood levels after oral administration; type: in vivo

Row | Compound | solubility (concentration in solution) ([1]; slurry time 5 min) | solubility (concentration in solution) ([1]; slurry time 15 min) | solubility (concentration in solution) ([1]; slurry time 60 min) | phase change during the GMS experiments ([2]; 25° C.) | water uptake from 0% to 90% RH ([2]; GMS) | solubility (concentration in solution) ([3]; slurry time 5 min) | solubility (concentration in solution) ([3]; slurry time 15 min) | solubility (concentration in solution) ([3]; slurry time 60 min) | hygroscopicity (comparison) ([2]; GMS, 25° C.) | food effect ([4]; compared to darolutamide Form I) | blood levels when administered without food ([4]; without food)
1 | CC(O)c1cc(C(=O)N[C@@H](C)Cn2ccc(-c3ccc(C#N)c(Cl)c3)n2)n[nH]1 (mixture of isomers) [Form I, N-{(2S)-1-[3-(3-chloro-4-cyanophenyl)-1H-pyrazol-1-yl]-propan-2-yl}-5-[(1RS)-1-hydroxyethyl]-1H-pyrazole-3-carboxamide] | 43 µg/mL | 40 µg/mL | 42 µg/mL | Neither form I nor form II underwent any phase change | +1.7% | 43 µg/mL | 41 µg/mL | 38 µg/mL | – | – | –
2 | CC(O)c1cc(C(=O)N[C@@H](C)Cn2ccc(-c3ccc(C#N)c(Cl)c3)n2)n[nH]1 (mixture of isomers) [Form II, N-{(2S)-1-[3-(3-chloro-4-cyanophenyl)-1H-pyrazol-1-yl]-propan-2-yl}-5-[(1RS)-1-hydroxyethyl]-1H-pyrazole-3-carboxamide] | 89 µg/mL | 97 µg/mL | 93 µg/mL | Neither form I nor form II underwent any phase change | +1.3% | 113 µg/mL | 121 µg/mL | 117 µg/mL | less hygroscopic than form I | significantly lower food effect | still achieving therapeutically effective blood levels

Reference: US20210087175A1, “Crystalline Form II of Darolutamide” (Sandoz AG, priority 2018, published 2021)
